From the supplement of paper PMC10132981, “Formate overflow drives toxic folate trapping in MTHFD1 inhibited cancer cells” (Nature Metabolism, 2023)

Tested on: SW620
Test: cell viability relative to vehicle (resazurin, 96 h); higher = more viable
Method: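 SW620 WT or MTHFD2-/- cells were treated for 96 h with a compound dilution series (log10 M) in RPMI with normal or dialysed FBS. Viability was read by resazurin and is given as % of vehicle.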

CN(Cc1cnc2nc(N)nc(N)c2n1)c1ccc(C(=O)N[C@@H](CCC(=O)O)C(=O)O)cc1 [methotrexate]
Details | cell viability [%]
log10 compound concentration (M): -5, supplement / serum: Hypoxanthine + AICAr 10μM, base medium: RPMI + dialysed FBS | 5.12
log10 compound concentration (M): -5, supplement / serum: Hypoxanthine + AICAr 30μM, base medium: RPMI + dialysed FBS | 4.87
log10 compound concentration (M): -5, supplement / serum: Hypoxanthine + AICAr 50μM, base medium: RPMI + dialysed FBS | 5.34
log10 compound concentration (M): -5, supplement / serum: Hypoxanthine + AICAr 100μM, base medium: RPMI + dialysed FBS | 5.12
log10 compound concentration (M): -5, supplement / serum: Hypoxanthine, base medium: RPMI + dialysed FBS | 4.67
log10 compound concentration (M): -5, supplement / serum: RPMI + Dialyzed FBS + 50μM Hypoxanthine, base medium: RPMI-1640 | 6.47
log10 compound concentration (M): -5, supplement / serum: RPMI + Dialyzed FBS, base medium: RPMI-1640 | 5.07
log10 compound concentration (M): -5, supplement / serum: RPMI + Normal FBS, base medium: RPMI-1640 | 19.1
log10 compound concentration (M): -5, supplement / serum: Vehicle, base medium: RPMI + dialysed FBS | 4.01
log10 compound concentration (M): -5.47712, supplement / serum: Hypoxanthine + AICAr 10μM, base medium: RPMI + dialysed FBS | 5.68
log10 compound concentration (M): -5.47712, supplement / serum: Hypoxanthine + AICAr 30μM, base medium: RPMI + dialysed FBS | 4.86
log10 compound concentration (M): -5.47712, supplement / serum: Hypoxanthine + AICAr 50μM, base medium: RPMI + dialysed FBS | 6.17
log10 compound concentration (M): -5.47712, supplement / serum: Hypoxanthine + AICAr 100μM, base medium: RPMI + dialysed FBS | 5.44
log10 compound concentration (M): -5.47712, supplement / serum: Hypoxanthine, base medium: RPMI + dialysed FBS | 5.19
log10 compound concentration (M): -5.47712, supplement / serum: RPMI + Dialyzed FBS + 50μM Hypoxanthine, base medium: RPMI-1640 | 7.16
log10 compound concentration (M): -5.47712, supplement / serum: RPMI + Dialyzed FBS, base medium: RPMI-1640 | 5.32
log10 compound concentration (M): -5.47712, supplement / serum: RPMI + Normal FBS, base medium: RPMI-1640 | 22.3
log10 compound concentration (M): -5.47712, supplement / serum: Vehicle, base medium: RPMI + dialysed FBS | 3.96
log10 compound concentration (M): -5.95424, supplement / serum: Hypoxanthine + AICAr 10μM, base medium: RPMI + dialysed FBS | 6.05
log10 compound concentration (M): -5.95424, supplement / serum: Hypoxanthine + AICAr 30μM, base medium: RPMI + dialysed FBS | 4.88
log10 compound concentration (M): -5.95424, supplement / serum: Hypoxanthine + AICAr 50μM, base medium: RPMI + dialysed FBS | 6.61
log10 compound concentration (M): -5.95424, supplement / serum: Hypoxanthine + AICAr 100μM, base medium: RPMI + dialysed FBS | 6.46
log10 compound concentration (M): -5.95424, supplement / serum: Hypoxanthine, base medium: RPMI + dialysed FBS | 4.87
log10 compound concentration (M): -5.95424, supplement / serum: RPMI + Dialyzed FBS + 50μM Hypoxanthine, base medium: RPMI-1640 | 7.47
log10 compound concentration (M): -5.95424, supplement / serum: RPMI + Dialyzed FBS, base medium: RPMI-1640 | 5.35
log10 compound concentration (M): -5.95424, supplement / serum: RPMI + Normal FBS, base medium: RPMI-1640 | 14.7
log10 compound concentration (M): -5.95424, supplement / serum: Vehicle, base medium: RPMI + dialysed FBS | 4.17
log10 compound concentration (M): -6.43136, supplement / serum: Hypoxanthine + AICAr 10μM, base medium: RPMI + dialysed FBS | 6.29
log10 compound concentration (M): -6.43136, supplement / serum: Hypoxanthine + AICAr 30μM, base medium: RPMI + dialysed FBS | 5.47
log10 compound concentration (M): -6.43136, supplement / serum: Hypoxanthine + AICAr 50μM, base medium: RPMI + dialysed FBS | 7.05
log10 compound concentration (M): -6.43136, supplement / serum: Hypoxanthine + AICAr 100μM, base medium: RPMI + dialysed FBS | 6.81
log10 compound concentration (M): -6.43136, supplement / serum: Hypoxanthine, base medium: RPMI + dialysed FBS | 5.56
log10 compound concentration (M): -6.43136, supplement / serum: RPMI + Dialyzed FBS + 50μM Hypoxanthine, base medium: RPMI-1640 | 7.77
log10 compound concentration (M): -6.43136, supplement / serum: RPMI + Dialyzed FBS, base medium: RPMI-1640 | 4.63
log10 compound concentration (M): -6.43136, supplement / serum: RPMI + Normal FBS, base medium: RPMI-1640 | 17
log10 compound concentration (M): -6.43136, supplement / serum: Vehicle, base medium: RPMI + dialysed FBS | 4.16
log10 compound concentration (M): -6.90849, supplement / serum: Hypoxanthine + AICAr 10μM, base medium: RPMI + dialysed FBS | 7.03
log10 compound concentration (M): -6.90849, supplement / serum: Hypoxanthine + AICAr 30μM, base medium: RPMI + dialysed FBS | 5.61
log10 compound concentration (M): -6.90849, supplement / serum: Hypoxanthine + AICAr 50μM, base medium: RPMI + dialysed FBS | 6.93
log10 compound concentration (M): -6.90849, supplement / serum: Hypoxanthine + AICAr 100μM, base medium: RPMI + dialysed FBS | 6.51
log10 compound concentration (M): -6.90849, supplement / serum: Hypoxanthine, base medium: RPMI + dialysed FBS | 5.78
log10 compound concentration (M): -6.90849, supplement / serum: RPMI + Dialyzed FBS + 50μM Hypoxanthine, base medium: RPMI-1640 | 8.66
log10 compound concentration (M): -6.90849, supplement / serum: RPMI + Dialyzed FBS, base medium: RPMI-1640 | 5.1
log10 compound concentration (M): -6.90849, supplement / serum: RPMI + Normal FBS, base medium: RPMI-1640 | 20.5
log10 compound concentration (M): -6.90849, supplement / serum: Vehicle, base medium: RPMI + dialysed FBS | 4.6
log10 compound concentration (M): -7.38561, supplement / serum: Hypoxanthine + AICAr 10μM, base medium: RPMI + dialysed FBS | 15.3
log10 compound concentration (M): -7.38561, supplement / serum: Hypoxanthine + AICAr 30μM, base medium: RPMI + dialysed FBS | 7.88
log10 compound concentration (M): -7.38561, supplement / serum: Hypoxanthine + AICAr 50μM, base medium: RPMI + dialysed FBS | 10.8
log10 compound concentration (M): -7.38561, supplement / serum: Hypoxanthine + AICAr 100μM, base medium: RPMI + dialysed FBS | 9.102
log10 compound concentration (M): -7.38561, supplement / serum: Hypoxanthine, base medium: RPMI + dialysed FBS | 14.7
log10 compound concentration (M): -7.38561, supplement / serum: RPMI + Dialyzed FBS + 50μM Hypoxanthine, base medium: RPMI-1640 | 24.7
log10 compound concentration (M): -7.38561, supplement / serum: RPMI + Dialyzed FBS, base medium: RPMI-1640 | 5.71
log10 compound concentration (M): -7.38561, supplement / serum: RPMI + Normal FBS, base medium: RPMI-1640 | 42.8
log10 compound concentration (M): -7.38561, supplement / serum: Vehicle, base medium: RPMI + dialysed FBS | 4.77
log10 compound concentration (M): -7.86273, supplement / serum: Hypoxanthine + AICAr 10μM, base medium: RPMI + dialysed FBS | 103
log10 compound concentration (M): -7.86273, supplement / serum: Hypoxanthine + AICAr 30μM, base medium: RPMI + dialysed FBS | 75.9
log10 compound concentration (M): -7.86273, supplement / serum: Hypoxanthine + AICAr 50μM, base medium: RPMI + dialysed FBS | 65.1
log10 compound concentration (M): -7.86273, supplement / serum: Hypoxanthine + AICAr 100μM, base medium: RPMI + dialysed FBS | 39.1
log10 compound concentration (M): -7.86273, supplement / serum: Hypoxanthine, base medium: RPMI + dialysed FBS | 92.6
log10 compound concentration (M): -7.86273, supplement / serum: RPMI + Dialyzed FBS + 50μM Hypoxanthine, base medium: RPMI-1640 | 85
log10 compound concentration (M): -7.86273, supplement / serum: RPMI + Dialyzed FBS, base medium: RPMI-1640 | 15.5
log10 compound concentration (M): -7.86273, supplement / serum: RPMI + Normal FBS, base medium: RPMI-1640 | 53.8
log10 compound concentration (M): -7.86273, supplement / serum: Vehicle, base medium: RPMI + dialysed FBS | 10.7
log10 compound concentration (M): -8.33985, supplement / serum: Hypoxanthine + AICAr 10μM, base medium: RPMI + dialysed FBS | 117
log10 compound concentration (M): -8.33985, supplement / serum: Hypoxanthine + AICAr 30μM, base medium: RPMI + dialysed FBS | 93.6
log10 compound concentration (M): -8.33985, supplement / serum: Hypoxanthine + AICAr 50μM, base medium: RPMI + dialysed FBS | 119.7
log10 compound concentration (M): -8.33985, supplement / serum: Hypoxanthine + AICAr 100μM, base medium: RPMI + dialysed FBS | 92.9
log10 compound concentration (M): -8.33985, supplement / serum: Hypoxanthine, base medium: RPMI + dialysed FBS | 99.3
log10 compound concentration (M): -8.33985, supplement / serum: RPMI + Dialyzed FBS + 50μM Hypoxanthine, base medium: RPMI-1640 | 99.18
log10 compound concentration (M): -8.33985, supplement / serum: RPMI + Dialyzed FBS, base medium: RPMI-1640 | 72.4
